Molecular target: T1, CFTR (Homo sapiens, UniProt P13569, DEL508-508)
T1 construct: Primary CF airway epithelial cells were obtained from the UNC Cystic Fibrosis Tissue Procurement and Cell Culture Core; host or cells: primary CF airway epithelial cells
Experiment: Equivalent current assay in Primary CF airway epithelial cells (NAUC)
Type: cell-based
Details: 24 h, normalized to VX809 (3 μM) positive control; for Nauc @ 3 μM: 3 μM test compound; for Nauc @ 10 μM: 10 μM test compound
In short: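 Primary CF airway epithelia differentiated ≥4 weeks at air-liquid interface, treated basolaterally 24 h at 37 °C with test compounds in combination with VX809, 0.1% DMSO vehicle. Equivalent current recorded after 5 μM benzamil, 10 μM forskolin plus 1 μM VX770, then CFTR-172/bumetanide 20 μM; vehicle-subtracted AUC normalized to 3 μM VX809 (NAUC), median of n≥4, sigmoid fit for EC50.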

T1 sequence (P13569 with tags, fused parts or gaps DEL508-508): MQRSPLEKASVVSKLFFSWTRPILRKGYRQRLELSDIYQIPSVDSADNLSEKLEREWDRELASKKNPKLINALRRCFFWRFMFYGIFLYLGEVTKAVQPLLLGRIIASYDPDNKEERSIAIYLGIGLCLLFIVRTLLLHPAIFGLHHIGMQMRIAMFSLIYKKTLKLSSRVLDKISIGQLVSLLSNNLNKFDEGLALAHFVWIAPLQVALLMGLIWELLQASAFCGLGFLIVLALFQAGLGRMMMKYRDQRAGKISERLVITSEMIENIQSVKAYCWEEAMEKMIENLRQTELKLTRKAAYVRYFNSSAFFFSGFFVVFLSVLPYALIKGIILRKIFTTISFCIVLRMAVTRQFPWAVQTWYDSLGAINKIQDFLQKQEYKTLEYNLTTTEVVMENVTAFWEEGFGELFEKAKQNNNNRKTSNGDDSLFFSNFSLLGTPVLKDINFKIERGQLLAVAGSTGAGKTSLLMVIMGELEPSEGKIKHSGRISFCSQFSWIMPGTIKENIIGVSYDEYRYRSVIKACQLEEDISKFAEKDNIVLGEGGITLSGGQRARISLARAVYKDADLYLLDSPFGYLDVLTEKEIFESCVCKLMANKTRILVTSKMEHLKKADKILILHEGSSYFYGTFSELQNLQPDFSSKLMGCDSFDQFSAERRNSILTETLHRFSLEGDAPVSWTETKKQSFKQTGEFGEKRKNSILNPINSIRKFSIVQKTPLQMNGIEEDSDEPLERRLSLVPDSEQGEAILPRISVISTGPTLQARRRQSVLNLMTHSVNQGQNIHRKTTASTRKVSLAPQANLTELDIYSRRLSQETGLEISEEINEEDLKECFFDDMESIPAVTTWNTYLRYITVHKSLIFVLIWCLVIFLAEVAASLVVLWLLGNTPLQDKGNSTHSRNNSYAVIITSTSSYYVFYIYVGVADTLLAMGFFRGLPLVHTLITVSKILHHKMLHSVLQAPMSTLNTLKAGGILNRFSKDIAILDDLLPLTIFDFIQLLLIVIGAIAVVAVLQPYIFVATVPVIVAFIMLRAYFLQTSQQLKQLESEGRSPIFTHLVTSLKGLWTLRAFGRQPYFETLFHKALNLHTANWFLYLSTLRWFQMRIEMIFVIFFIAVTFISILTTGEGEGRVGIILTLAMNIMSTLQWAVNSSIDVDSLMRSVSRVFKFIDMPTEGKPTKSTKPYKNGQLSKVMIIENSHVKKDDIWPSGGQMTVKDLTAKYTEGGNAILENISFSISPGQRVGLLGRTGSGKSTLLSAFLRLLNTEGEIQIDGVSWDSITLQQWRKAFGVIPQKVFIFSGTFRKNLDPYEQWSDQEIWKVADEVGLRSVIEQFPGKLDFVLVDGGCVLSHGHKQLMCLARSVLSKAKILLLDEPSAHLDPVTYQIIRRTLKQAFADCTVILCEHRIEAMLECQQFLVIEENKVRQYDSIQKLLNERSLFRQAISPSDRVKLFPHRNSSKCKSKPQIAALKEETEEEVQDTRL

SMILES: NC(=O)c1cccc(N2C(=O)C3C4CCCN4C4(C(=O)Nc5c(Cl)cc(Cl)cc54)C3C2=O)c1 (stereo not shown) [Example 19]
- Nauc @ 3 μM: + (NAUC “+” refers to an observed NAUC <140% of positive control)
- Nauc @ 10 μM: ++ (NAUC “++” refers to an observed NAUC 170-140% of positive control)

SMILES: COc1cc(Cl)cc(N2C(=O)C3C4C[C@H](O)CN4C4(C(=O)Nc5c(Cl)cc(Cl)cc54)C3C2=O)c1 (stereo partly shown) [Example 74]
- Nauc @ 3 μM: +++ (NAUC “+++” refers to an observed NAUC >170% of positive control)
- Nauc @ 10 μM: +++ (NAUC “+++” refers to an observed NAUC >170% of positive control)

SMILES: CC12C(=O)N(c3cc(Cl)cc(Cl)c3)C(=O)C1C1(C(=O)Nc3c(Cl)cc(Cl)cc31)N1CCCC12 (stereo not shown) [Example 44]
- Nauc @ 3 μM: ++ (NAUC “++” refers to an observed NAUC 170-140% of positive control)
- Nauc @ 10 μM: + (NAUC “+” refers to an observed NAUC <140% of positive control)

SMILES: COc1ccc2c(c1)NC(=O)C21C2C(=O)N(c3cc(Cl)cc(Cl)c3)C(=O)C2C2CCCN21 (stereo not shown) [Example 98]
- Nauc @ 3 μM: +++ (NAUC “+++” refers to an observed NAUC >170% of positive control)
- Nauc @ 10 μM: +++ (NAUC “+++” refers to an observed NAUC >170% of positive control)

SMILES: COc1c(Cl)cc(N2C(=O)C3C4C[C@@](C)(F)CN4C4(C(=O)Nc5c(Cl)cc(Cl)cc54)C3C2=O)cc1Cl (single isomer, unassigned) [Example 162]
- Nauc @ 3 μM: + (NAUC “+” refers to an observed NAUC <140% of positive control)
- Nauc @ 10 μM: ++ (NAUC “++” refers to an observed NAUC 170-140% of positive control)

SMILES: C=C1CC2C3C(=O)N(c4cc(Cl)cc(Cl)c4)C(=O)C3C3(C(=O)Nc4c(Cl)cc(Cl)cc43)N2C1 (single isomer, unassigned) [Example 144]
- Nauc @ 3 μM: +++ (NAUC “+++” refers to an observed NAUC >170% of positive control)
- Nauc @ 10 μM: +++ (NAUC “+++” refers to an observed NAUC >170% of positive control)

SMILES: O=C1C2C(Cc3ccccc3Cl)NC3(C(=O)Nc4c(Cl)cc(Cl)cc43)C2C(=O)N1c1cc(Cl)cc(Cl)c1 (stereo not shown) [Example 236]
- Nauc @ 3 μM: +++ (NAUC “+++” refers to an observed NAUC >170% of positive control)
- Nauc @ 10 μM: ++ (NAUC “++” refers to an observed NAUC 170-140% of positive control)

SMILES: COc1c(Cl)cc(N2C(=O)C3C4CCCN4C4(C(=O)Nc5c(Cl)cc(Cl)cc54)C3C2=O)cc1Cl (stereo not shown) [Example 77]
- Nauc @ 3 μM: +++ (NAUC “+++” refers to an observed NAUC >170% of positive control)
- Nauc @ 10 μM: +++ (NAUC “+++” refers to an observed NAUC >170% of positive control)

SMILES: O=C1C2C3C[C@H](Cl)CN3C3(C(=O)Nc4c(Cl)cc(Cl)cc43)C2C(=O)N1c1cc(Cl)cc(Cl)c1 (single isomer, unassigned) [Example 87]
- Nauc @ 3 μM: +++ (NAUC “+++” refers to an observed NAUC >170% of positive control)
- Nauc @ 10 μM: +++ (NAUC “+++” refers to an observed NAUC >170% of positive control)

SMILES: COc1c(Cl)cc(N2C(=O)C3C4CCCN4C4(C(=O)Nc5c(Cl)cc(Cl)cc54)C3C2=O)cc1Cl (single isomer, unassigned) [Example 112]
- Nauc @ 3 μM: +++ (NAUC “+++” refers to an observed NAUC >170% of positive control)
- Nauc @ 10 μM: +++ (NAUC “+++” refers to an observed NAUC >170% of positive control)

SMILES: COc1cc(Cl)cc(N2C(=O)C3C4CC(C)(C)CN4C4(C(=O)Nc5c(Cl)cc(Cl)cc54)C3C2=O)c1 (stereo not shown) [Example 127]
- Nauc @ 3 μM: ++ (NAUC “++” refers to an observed NAUC 170-140% of positive control)
- Nauc @ 10 μM: + (NAUC “+” refers to an observed NAUC <140% of positive control)

SMILES: O=C1C2C(c3ccccn3)NC3(C(=O)Nc4c(Cl)cc(Cl)cc43)C2C(=O)N1c1cc(Cl)cc(Cl)c1 (stereo not shown) [Example 212]
- Nauc @ 3 μM: + (NAUC “+” refers to an observed NAUC <140% of positive control)
- Nauc @ 10 μM: ++ (NAUC “++” refers to an observed NAUC 170-140% of positive control)

SMILES: [2H]C12C(=O)N(c3cc(Cl)cc(Cl)c3)C(=O)C1([2H])C1(C(=O)Nc3c(Cl)cc(Cl)cc31)N1CC(C)(C)CC12 (stereo not shown) [Example 147]
- Nauc @ 3 μM: +++ (NAUC “+++” refers to an observed NAUC >170% of positive control)
- Nauc @ 10 μM: +++ (NAUC “+++” refers to an observed NAUC >170% of positive control)

SMILES: O=C1C2C3C[C@H](F)CN3C3(C(=O)Nc4c(Cl)cc(Cl)cc43)C2C(=O)N1c1cc(Cl)cc(Cl)c1 (stereo partly shown) [Example 49]
- Nauc @ 3 μM: ++ (NAUC “++” refers to an observed NAUC 170-140% of positive control)
- Nauc @ 10 μM: +++ (NAUC “+++” refers to an observed NAUC >170% of positive control)

SMILES: O=C1C2C3CC(C(F)F)CN3C3(C(=O)Nc4c(Cl)cc(Cl)cc43)C2C(=O)N1c1cc(Cl)cc(Cl)n1 (stereo not shown) [Example 131]
- Nauc @ 3 μM: + (NAUC “+” refers to an observed NAUC <140% of positive control)
- Nauc @ 10 μM: ++ (NAUC “++” refers to an observed NAUC 170-140% of positive control)

SMILES: COc1c(Cl)cc(N2C(=O)C3C4CC5(CC5)CN4C4(C(=O)Nc5c(Cl)cc(Cl)cc54)C3C2=O)cc1Cl (single isomer, unassigned) [Example 197]
- Nauc @ 3 μM: +++ (NAUC “+++” refers to an observed NAUC >170% of positive control)
- Nauc @ 10 μM: +++ (NAUC “+++” refers to an observed NAUC >170% of positive control)

SMILES: O=C1C2C3C[C@H](Cl)CN3C3(C(=O)Nc4c(Cl)cc(Cl)cc43)C2C(=O)N1c1cc(Cl)cc(Cl)c1 (single isomer, unassigned) [Example 86]
- Nauc @ 3 μM: + (NAUC “+” refers to an observed NAUC <140% of positive control)
- Nauc @ 10 μM: +++ (NAUC “+++” refers to an observed NAUC >170% of positive control)

SMILES: O=C1C2C3c4ccccc4CN3C3(C(=O)Nc4c(Cl)cc(Cl)cc43)C2C(=O)N1c1cc(Cl)cc(Cl)c1 (stereo not shown) [Example 22]
- Nauc @ 3 μM: +++ (NAUC “+++” refers to an observed NAUC >170% of positive control)
- Nauc @ 10 μM: +++ (NAUC “+++” refers to an observed NAUC >170% of positive control)

SMILES: [2H]C12C(=O)N(c3cc(Cl)cc(Cl)c3)C(=O)C1([2H])C1(C(=O)Nc3c(Cl)cc(Cl)cc31)N1CCCC12 (single isomer, unassigned) [Example 70]
- Nauc @ 3 μM: +++ (NAUC “+++” refers to an observed NAUC >170% of positive control)
- Nauc @ 10 μM: +++ (NAUC “+++” refers to an observed NAUC >170% of positive control)

SMILES: C[C@]1(O)CC2C3C(=O)N(c4cc(Cl)cc(Cl)c4)C(=O)C3C3(C(=O)Nc4c(Cl)cc(Cl)cc43)N2C1 (stereo partly shown) [Example 156]
- Nauc @ 3 μM: ++ (NAUC “++” refers to an observed NAUC 170-140% of positive control)
- Nauc @ 10 μM: +++ (NAUC “+++” refers to an observed NAUC >170% of positive control)

SMILES: O=C1C2C3CCCN3C3(C(=O)Nc4c(Cl)cc(Cl)cc43)C2C(=O)N1c1cccc2c1OC(F)(F)O2 (stereo not shown) [Example 23]
- Nauc @ 3 μM: ++ (NAUC “++” refers to an observed NAUC 170-140% of positive control)
- Nauc @ 10 μM: + (NAUC “+” refers to an observed NAUC <140% of positive control)

SMILES: O=C1C2C3CC(C(F)F)CN3C3(C(=O)Nc4c(Cl)cc(Cl)cc43)C2C(=O)N1c1cc(Cl)cc(Cl)c1 (stereo not shown) [Example 137]
- Nauc @ 3 μM: +++ (NAUC “+++” refers to an observed NAUC >170% of positive control)
- Nauc @ 10 μM: +++ (NAUC “+++” refers to an observed NAUC >170% of positive control)

SMILES: COc1ccc(CC2NC3(C(=O)Nc4c(Cl)cc(Cl)cc43)C3C(=O)N(c4cc(Cl)cc(Cl)c4)C(=O)C23)cc1 (stereo not shown) [Example 198]
- Nauc @ 3 μM: + (NAUC “+” refers to an observed NAUC <140% of positive control)
- Nauc @ 10 μM: ++ (NAUC “++” refers to an observed NAUC 170-140% of positive control)

SMILES: O=C1C2C(Cc3c(Cl)cccc3Cl)NC3(C(=O)Nc4c(Cl)cc(Cl)cc43)C2C(=O)N1c1cc(Cl)cc(Cl)c1 (stereo not shown) [Example 228]
- Nauc @ 3 μM: +++ (NAUC “+++” refers to an observed NAUC >170% of positive control)
- Nauc @ 10 μM: ++ (NAUC “++” refers to an observed NAUC 170-140% of positive control)

SMILES: N[C@@H]1CC2C3C(=O)N(c4cc(Cl)cc(Cl)c4)C(=O)C3C3(C(=O)Nc4c(Cl)cc(Cl)cc43)N2C1 (stereo partly shown) [Example 60]
- Nauc @ 3 μM: + (NAUC “+” refers to an observed NAUC <140% of positive control)
- Nauc @ 10 μM: ++ (NAUC “++” refers to an observed NAUC 170-140% of positive control)

SMILES: O=C1C2C(C(=O)N1c1cc(Cl)cc(Cl)c1)C1(NC23CC3)C(=O)Nc2c(Cl)cc(Cl)cc21 (stereo not shown) [Example 210]
- Nauc @ 3 μM: + (NAUC “+” refers to an observed NAUC <140% of positive control)
- Nauc @ 10 μM: ++ (NAUC “++” refers to an observed NAUC 170-140% of positive control)

SMILES: COc1cc(Cl)cc(N2C(=O)C3C4C[C@](C)(F)CN4C4(C(=O)Nc5c(Cl)cc(Cl)cc54)C3C2=O)c1 (stereo partly shown) [Example 205]
- Nauc @ 3 μM: ++ (NAUC “++” refers to an observed NAUC 170-140% of positive control)
- Nauc @ 10 μM: +++ (NAUC “+++” refers to an observed NAUC >170% of positive control)

SMILES: O=C1C2C3CCCN3C3(C(=O)Nc4c(Cl)cc(Cl)cc43)C2C(=O)N1c1cc(Cl)cc(Cl)n1 (stereo not shown) [Example 52]
- Nauc @ 3 μM: ++ (NAUC “++” refers to an observed NAUC 170-140% of positive control)
- Nauc @ 10 μM: +++ (NAUC “+++” refers to an observed NAUC >170% of positive control)

SMILES: C[C@]1(OCc2ccccc2)CC2C3C(=O)N(c4cc(Cl)cc(Cl)c4)C(=O)C3C3(C(=O)Nc4c(Cl)cc(Cl)cc43)N2C1 (single isomer, unassigned) [Example 239]
- Nauc @ 3 μM: ++ (NAUC “++” refers to an observed NAUC 170-140% of positive control)
- Nauc @ 10 μM: ++ (NAUC “++” refers to an observed NAUC 170-140% of positive control)
